Where two headings read alike, the source gives them in different places.
How the values were obtained:
[1] = target: T1, BTK (Homo sapiens, UniProt Q06187); assay: Inhibitory activity against BTK, ADP-Glo Kinase system (Promega); format: biochemical
T1 construct: purchased Signalchem B10-10H
In short: (§1)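 IC50 values were fitted from kinase reactions run for 1 h at 30°C with either 1 mM ATP or ATP at Km (10 µM for BTK, 25 µM for ITK). Reactions used 0.2 µg/µl poly(Glu4,Tyr1), recombinant human enzyme (BTK 10 ng, ITK 4 ng per reaction) in Tris pH 7.5 Mn/Mg buffer with 1% DMSO. ADP formed was read by ADP-Glo luminescence.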

[2] = target: T2, ITK (Homo sapiens, UniProt Q08881); assay: Inhibitory activity against ITK, ADP-Glo Kinase system (Promega); format: biochemical
T2 construct: purchased Signalchem I13-11G-10
T2 sequence (Q08881 1-620): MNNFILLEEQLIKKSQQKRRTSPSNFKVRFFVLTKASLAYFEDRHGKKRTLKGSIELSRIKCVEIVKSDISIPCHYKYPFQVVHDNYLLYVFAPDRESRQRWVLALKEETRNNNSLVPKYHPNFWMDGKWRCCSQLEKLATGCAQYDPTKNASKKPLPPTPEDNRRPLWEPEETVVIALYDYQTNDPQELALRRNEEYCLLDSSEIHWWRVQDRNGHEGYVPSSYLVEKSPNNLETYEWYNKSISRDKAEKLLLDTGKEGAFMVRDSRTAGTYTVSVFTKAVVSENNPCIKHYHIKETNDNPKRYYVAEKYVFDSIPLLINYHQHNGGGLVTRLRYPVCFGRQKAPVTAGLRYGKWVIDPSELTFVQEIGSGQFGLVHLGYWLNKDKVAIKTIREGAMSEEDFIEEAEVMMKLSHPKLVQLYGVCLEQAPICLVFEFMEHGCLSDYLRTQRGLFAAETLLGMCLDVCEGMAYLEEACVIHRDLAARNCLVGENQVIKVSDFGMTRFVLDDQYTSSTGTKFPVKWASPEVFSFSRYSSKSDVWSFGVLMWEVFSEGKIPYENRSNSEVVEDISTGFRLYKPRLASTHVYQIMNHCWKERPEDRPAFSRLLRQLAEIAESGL
In short: as §1

[3] = 1mM ATP, read-out: BTK IC50(nM) 1mM ATP
[4] = 1mM ATP, read-out: ITK IC50(nM) 1mM ATP

T1 sequence (Q06187 whole entry): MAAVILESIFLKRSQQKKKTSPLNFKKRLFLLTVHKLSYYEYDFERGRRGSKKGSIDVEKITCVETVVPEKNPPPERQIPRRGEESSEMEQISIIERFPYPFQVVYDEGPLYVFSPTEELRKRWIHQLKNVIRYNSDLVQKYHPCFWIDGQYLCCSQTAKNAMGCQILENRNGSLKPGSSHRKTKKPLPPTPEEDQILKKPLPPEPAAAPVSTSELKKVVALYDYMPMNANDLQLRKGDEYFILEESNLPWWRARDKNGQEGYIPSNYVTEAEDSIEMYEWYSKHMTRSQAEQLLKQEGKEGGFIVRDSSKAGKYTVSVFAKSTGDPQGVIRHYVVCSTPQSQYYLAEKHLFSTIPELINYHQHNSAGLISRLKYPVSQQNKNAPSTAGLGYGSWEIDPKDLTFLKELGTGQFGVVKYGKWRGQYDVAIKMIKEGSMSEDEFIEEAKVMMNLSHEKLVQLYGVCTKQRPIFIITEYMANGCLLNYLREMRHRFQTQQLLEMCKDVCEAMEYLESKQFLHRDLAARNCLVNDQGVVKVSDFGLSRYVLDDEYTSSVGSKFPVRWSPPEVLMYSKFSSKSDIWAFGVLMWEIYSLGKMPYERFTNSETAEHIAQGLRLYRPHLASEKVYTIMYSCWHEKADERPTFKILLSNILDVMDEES

IC50 ([1]; Km ATP (BTK: 10 uM), read-out: BTK IC50(nM) Km ATP) [nM]	IC50 ([2]; Km ATP (ITK: 25uM), read-out: ITK IC50(nM) Km ATP) [nM]	IC50 [1, 3] [nM]	IC50 [2, 4] [nM]	Structure (SMILES)
≤ 20	≤ 20	–	–	C=CC(=O)N1CC[C@H](Oc2nc(Nc3ncc(C)s3)cc3c2ccn3CC)C1 [Example 125, (S)-1-(3-((1-ethyl-6-((5-methylthiazol-2-yl)amino)-1H-pyrrolo[3,2-c]pyridin-4-yl)oxy)pyrrolidin-1-yl)prop-2-en-1-one]
–	–	≤ 20	≤ 20	C=CC(=O)N1CC[C@H](Oc2nc(Nc3ncc(C)s3)cc3c2ccn3CCC)C1 [Example 126, (S)-1-(3-((6-((5-methylthiazol-2-yl)amino)-1-propyl-1H-pyrrolo[3,2-c]pyridin-4-yl)oxy)pyrrolidin-1-yl)prop-2-en-1-one]
–	–	≤ 20	≤ 20	C=CC(=O)N1CC[C@H](Oc2nc(Nc3ncc(C)s3)cc3c2ccn3CCOC)C1 [Example 127, (S)-1-(3-((1-(2-methoxyethyl)-6-((5-methylthiazol-2-yl)amino)-1H-pyrrolo[3,2-c]pyridin-4-yl)oxy)pyrrolidin-1-yl)prop-2-en-1-one]
–	–	≤ 20	≤ 20	C=CC(=O)N1CC[C@H](Oc2nc(Nc3ncc(C)s3)cc3c2ccn3CC2CCCC2)C1 [Example 128, (S)-1-(3-((1-(cyclopentylmethyl)-6-((5-methylthiazol-2-yl)amino)-1H-pyrrolo[3,2-c]pyridin-4-yl)oxy)pyrrolidin-1-yl)prop-2-en-1-one]
–	–	≤ 20	≤ 20	C=CC(=O)N1CC[C@H](Oc2nc(Nc3ncc(C)s3)cc3c2ccn3CC2CCCCC2)C1 [Example 129, (S)-1-(3-((1-(cyclohexylmethyl)-6-((5-methylthiazol-2-yl)amino)-1H-pyrrolo[3,2-c]pyridin-4-yl)oxy)pyrrolidin-1-yl)prop-2-en-1-one]
–	–	≤ 20	≤ 20	C=CC(=O)N1CC[C@H](Oc2nc(Nc3ncc(C)s3)cc3c2ccn3C)C1 [Example 130, (S)-1-(3-((1-methyl-6-((5-methylthiazol-2-yl)amino)-1H-pyrrolo[3,2-c]pyridin-4-yl)oxy)pyrrolidin-1-yl)prop-2-en-1-one]
–	–	≤ 20	≤ 20	C=CC(=O)N1C[C@H](F)[C@H](Oc2nc(Nc3ncc(C)s3)cc3c2ccn3C)C1 [Example 131, 1-((3S,4R)-3-fluoro-4-((1-methyl-6-((5-methylthiazol-2-yl)amino)-1H-pyrrolo[3,2-c]pyridin-4-yl)oxy)pyrrolidin-1-yl)prop-2-en-1-one]
–	–	≤ 20	≤ 20	C=CC(=O)N1C[C@H](F)[C@H](Oc2nc(Nc3ncc(C)s3)cc3c2ccn3CC2CCCC2)C1 [Example 132, 1-((3R,4S)-3-((1-(cyclopentylmethyl)-6-((5-methylthiazol-2-yl)amino)-1H-pyrrolo[3,2-c]pyridin-4-yl)oxy)-4-fluoropyrrolidin-1-yl)prop-2-en-1-one]
–	–	≤ 20	≤ 20	C=CC(=O)N1CC[C@H](Oc2nc(Nc3ncc(C)s3)cc3c2ccn3CC2CCOCC2)C1 [Example 133, (S)-1-(3-((6-((5-methylthiazol-2-yl)amino)-1-((tetrahydro-2H-pyran-4-yl)methyl)-1H-pyrrolo[3,2-c]pyridin-4-yl)oxy)pyrrolidin-1-yl)prop-2-en-1-one]
–	–	> 500	> 500	C=CC(=O)N1C[C@H](Oc2nc(Nc3ncc(C)s3)cc3c2ccn3CC(C)C)[C@@H](F)C1 [Example 134, 1-((3S,4S)-3-fluoro-4-((1-isobutyl-6-((5-methylthiazol-2-yl)amino)-1H-pyrrolo[3,2-c]pyridin-4-yl)oxy)pyrrolidin-1-yl)prop-2-en-1-one]
–	–	> 500	> 500	C=CC(=O)N1C[C@@H](F)[C@@H](Oc2nc(Nc3ncc(C)s3)cc3c2ccn3CC(C)C)C1 [Example 135, 1-((3R,4S)-3-fluoro-4-((1-isobutyl-6-((5-methylthiazol-2-yl)amino)-1H-pyrrolo[3,2-c]pyridin-4-yl)oxy)pyrrolidin-1-yl)prop-2-en-1-one]
–	–	≤ 20	≤ 20	C=CC(=O)N1CCC12CC(Oc1nc(Nc3ncc(C)s3)cc3c1ccn3C)C2 (centres unmarked) [Example 136, 1-(6-((1-methyl-6-((5-methylthiazol-2-yl)amino)-1H-pyrrolo[3,2-c]pyridin-4-yl)oxy)-1-azaspiro[3.3]heptan-1-yl)prop-2-en-1-one]
–	–	≤ 20	≤ 20	C=CC(=O)N1CCC12CC(Oc1nc(Nc3ncc(C)s3)cc3c1ccn3CC(C)C)C2 (centres unmarked) [Example 137, 1-(6-((1-isobutyl-6-((5-methylthiazol-2-yl)amino)-1H-pyrrolo[3,2-c]pyridin-4-yl)oxy)-1-azaspiro[3.3]heptan-1-yl)prop-2-en-1-one]
–	–	> 500	> 500	C=CC(=O)N1CC[C@H](Oc2nc(Nc3cc(F)ccc3C)cc3c2ccn3C)C1 [Example 138, (S)-1-(3-((6-((5-fluoro-2-methylphenyl)amino)-1-methyl-1H-pyrrolo[3,2-c]pyridin-4-yl)oxy)pyrrolidin-1-yl)prop-2-en-1-one]
–	–	> 500	> 500	C=CC(=O)N1C[C@H](F)[C@H](Oc2nc(Nc3cc(F)ccc3C)cc3c2ccn3C)C1 [Example 139, 1-((3S,4R)-3-fluoro-4-((6-((5-fluoro-2-methylphenyl)amino)-1-methyl-1H-pyrrolo[3,2-c]pyridin-4-yl)oxy)pyrrolidin-1-yl)prop-2-en-1-one]
–	–	≤ 20	≤ 20	C=CC(=O)N1CC[C@H](Oc2nc(Nc3ncc(C)s3)cc3c2ccn3CC(C)(C)O)C1 [Example 140, (S)-1-(3-((1-(2-hydroxy-2-methylpropyl)-6-((5-methylthiazol-2-yl)amino)-1H-pyrrolo[3,2-c]pyridin-4-yl)oxy)pyrrolidin-1-yl)prop-2-en-1-one]
–	–	≤ 20	≤ 20	C=CC(=O)N1C[C@H](F)[C@H](Oc2nc(Nc3ncc(C)s3)cc3c2ccn3CC(C)(C)O)C1 [Example 141, 1-((3S,4R)-3-fluoro-4-((1-(2-hydroxy-2-methylpropyl)-6-((5-methylthiazol-2-yl)amino)-1H-pyrrolo[3,2-c]pyridin-4-yl)oxy)pyrrolidin-1-yl)prop-2-en-1-one]
–	–	≤ 20	≤ 20	C=CC(=O)N1CC(Oc2nc(Nc3ncc(C)s3)cc3c2ccn3C2CCCC2)C1 [Example 142, 1-(3-((1-cyclopentyl-6-((5-methylthiazol-2-yl)amino)-1H-pyrrolo[3,2-c]pyridin-4-yl)oxy)azetidin-1-yl)prop-2-en-1-one]
–	–	> 500	> 500	C=CC(=O)N1CC[C@@H](Oc2nc(Nc3ncc(C)s3)cc3c2ccn3C2CCCC2)C1 [Example 143, (R)-1-(3-((1-cyclopentyl-6-((5-methylthiazol-2-yl)amino)-1H-pyrrolo[3,2-c]pyridin-4-yl)oxy)pyrrolidin-1-yl)prop-2-en-1-one]
–	–	> 500	> 500	C=CC(=O)N1CC[C@@H](Oc2nc(Nc3ncc(C)s3)cc3c2ccn3CC2CC2)C1 [Example 144, (R)-1-(3-((1-(cyclopropylmethyl)-6-((5-methylthiazol-2-yl)amino)-1H-pyrrolo[3,2-c]pyridin-4-yl)oxy)pyrrolidin-1-yl)prop-2-en-1-one]
–	–	≤ 20	≤ 20	C=CC(=O)N1CC(Oc2nc(Nc3ncc(C)s3)cc3c2ccn3CC2CC2)C1 [Example 145, 1-(3-((1-(cyclopropylmethyl)-6-((5-methylthiazol-2-yl)amino)-1H-pyrrolo[3,2-c]pyridin-4-yl)oxy)azetidin-1-yl)prop-2-en-1-one]
–	–	≤ 20	≤ 20	C=CC(=O)N1CC(Oc2nc(Nc3ncc(C)s3)cc3c2ccn3CCOC)C1 [Example 146, 1-(3-((1-(2-methoxyethyl)-6-((5-methylthiazol-2-yl)amino)-1H-pyrrolo[3,2-c]pyridin-4-yl)oxy)azetidin-1-yl)prop-2-en-1-one]
–	–	≤ 20	≤ 20	C=CC(=O)N1C[C@H](F)[C@H](Oc2nc(Nc3ncc(C)s3)cc3c2ccn3CCOC)C1 [Example 147, 1-((3S,4R)-3-fluoro-4-((1-(2-methoxyethyl)-6-((5-methylthiazol-2-yl)amino)-1H-pyrrolo[3,2-c]pyridin-4-yl)oxy)pyrrolidin-1-yl)prop-2-en-1-one]
–	–	≤ 20	≤ 20	C=CC(=O)N1CCC[C@H](Oc2nc(Nc3ncc(C)s3)cc3c2ccn3CCOC)C1 [Example 148, (S)-1-(3-((1-(2-methoxyethyl)-6-((5-methylthiazol-2-yl)amino)-1H-pyrrolo[3,2-c]pyridin-4-yl)oxy)piperidin-1-yl)prop-2-en-1-one]
–	–	≤ 20	≤ 20	C=CC(=O)N1CCC[C@H](Oc2nc(Nc3ncc(C)s3)cc3c2ccn3CC2CC2)C1 [Example 149, (S)-1-(3-((1-(cyclopropylmethyl)-6-((5-methylthiazol-2-yl)amino)-1H-pyrrolo[3,2-c]pyridin-4-yl)oxy)piperidin-1-yl)prop-2-en-1-one]
